According to patent publication US7485652B2, “Indolyl derivatives as liver-X-receptor (LXR) modulators” (Hoffmann-La Roche Inc., priority 2004, dated 2009):
pIC50: −log10 of the molar value.

Tests used:
human LXR beta = target: T1, human LXR beta (Homo sapiens, UniProt P55055); test: Radioligand binding assay (scintillation proximity), LXR beta; conditions: GST-LXR beta-LBD on SPA beads, radioligand displacement; read-out: LXRbeta Binding IC50
T1 construct: human LXR beta (aa 155 to 460); made in house; host or cells: E. coli BL21(pLysS)
T1 sequence (P55055 155-460): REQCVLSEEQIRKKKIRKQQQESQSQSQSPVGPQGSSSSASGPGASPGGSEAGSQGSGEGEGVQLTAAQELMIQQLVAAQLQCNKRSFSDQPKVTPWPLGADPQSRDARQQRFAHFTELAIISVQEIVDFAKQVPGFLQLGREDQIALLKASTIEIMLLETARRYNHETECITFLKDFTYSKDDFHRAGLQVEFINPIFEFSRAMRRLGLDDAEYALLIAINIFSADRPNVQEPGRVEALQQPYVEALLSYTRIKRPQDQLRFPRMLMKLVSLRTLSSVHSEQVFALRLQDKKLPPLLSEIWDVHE
Method: (§1) The following tests were carried out in order to determine the activity of the compounds of the present invention. Background information on the performed assays can be found in: Nichols J S et al. “Development of a scintillation proximity assay for peroxisome proliferator-activated receptor gamma ligand binding domain”, Anal Biochem. 1998, 257: 112-119.
(§2) Mammalian expression vectors were constructed to express full-length human LXR alpha and LXR beta. Bacterial expression vectors were constructed to produce glutathione-s-transferase (GST) fused to the ligand binding domains (LBD) of human LXR alpha (aa 164 to 447) and human LXR beta (aa 155 to 460). To accomplish this, the portions of the sequences encoding the LBDs were amplified from full-length clones by PCR and then subdoned into the plasmid vectors. Final clones were verified by DNA sequence analysis (Willy et al., Genes Dev. 1995, 9:1033-45; Song et al., Proc Natl Acad Sci USA.1994, 91:10809-13). […]
(§3) LXR alpha and LXR beta receptor binding were assayed in buffer consisting of 50 mM HEPES, pH 7.4, 10 mM NaCl, 5 mM MgCl2. […] All binding assays were performed in 96-well plates and the amount of bound ligand was measured on a Packard TopCount using OptiPlates (Packard). Dose response curves were measured within a range of concentration from 10^−10 M to 10^−4 M.

human LXR alpha = target: T2, human LXR alpha (Homo sapiens, UniProt Q13133); test: Radioligand binding assay (scintillation proximity), LXR alpha; conditions: GST-LXRα-LBD on SPA beads, radioligand displacement; read-out: LXRalpha Binding IC50
T2 construct: human LXR alpha (aa 164 to 447); made in house; host or cells: E. coli BL21(pLysS)
T2 sequence (Q13133 164-447): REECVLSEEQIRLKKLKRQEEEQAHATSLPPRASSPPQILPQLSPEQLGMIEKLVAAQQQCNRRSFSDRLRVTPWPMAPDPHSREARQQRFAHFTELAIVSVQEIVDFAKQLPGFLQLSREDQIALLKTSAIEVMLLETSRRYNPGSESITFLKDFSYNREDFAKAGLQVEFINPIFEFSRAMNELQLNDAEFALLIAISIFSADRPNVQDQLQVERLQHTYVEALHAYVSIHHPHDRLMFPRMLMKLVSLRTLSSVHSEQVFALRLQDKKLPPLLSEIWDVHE
Method: as §1, §2, §3

Row | SMILES | pIC50 (human LXR beta) | pIC50 (human LXR alpha)
1 | CC1Cc2cc(C(O)(C(F)(F)F)C(F)(F)F)ccc2N1Cc1cccc(CO)c1 (stereo not shown) [Example 50, 1,1,1,3,3,3-hexafluoro-2-[1-(3-hydroxymethyl-benzyl)-2-methyl-2,3-dihydro-1H-indol-5-yl]-propan-2-ol] | 8.22 | 7.70
2 | Cc1cc2cc(C(O)(C(F)(F)F)C(F)(F)F)ccc2n1Cc1ccccc1 [Example 80, 2-(1-benzyl-2-methyl-1H-indol-5-yl)-1,1,1,3,3,3-hexafluoro-propan-2-ol] | 7.30 | 7.52
